Measurements published in publication PMC7501296, “Rapid and direct control of target protein levels with VHL-recruiting dTAG molecules” (Nature Communications, 2020).
“And” between values parts separate entries of the source, which are not always exact repeats. Equal entries are not always repeated.

Tests used:
Format in all cases: cell-based
[1] = molecular target: T1, CDK9 (Homo sapiens, UniProt P50750); assay: Immunoblot, co-treatment with THAL-SNS-032 and/or dTAGV-1 in PATU-8902 LACZ-FKBP12F36V clone; settings: co-treatment dTAGV-1 + THAL-SNS-032, 24 h
T1 construct: endogenous in cells; host or cells: PATU-8902 LACZ-FKBP12^F36V clone
Procedure: PATU-8902 LACZ-FKBP12^F36V and FKBP12^F36V-KRAS^G12V; KRAS^−/− cells and 293T cells were lysed with RIPA buffer supplemented with cOmplete protease inhibitors (Roche), PhosSTOP phosphatase inhibitors (Roche), and 0.1% benzonase (Novagen). Proteins were separated using NuPAGE Bolt^TM Bis–Tris gels (Thermo Fisher Scientific) and transferred to nitrocellulose membranes, which were blocked with Odyssey Blocking Buffer (LI-COR) and incubated with primary antibodies overnight. Membranes were washed three times with TBS-T, incubated with the appropriate fluorescently labeled infrared secondary antibodies, washed again three times with TBS-T, and assessed using an Odyssey CLx Imager (LI-COR)[6],[15]. EWS502 cells were lysed with Cell Lysis Buffer (Cell Signaling Technology) supplemented with cOmplete protease inhibitors (Roche). Proteins were separated using SDS-PAGE gels and transferred to PVDF membranes, which were blocked with 5% milk in TBS-T and incubated with primary antibodies overnight. Membranes were washed five times with TBS-T, incubated with the appropriate horseradish peroxidase-conjugated secondary antibodies, washed again five times with TBS-T, and imaged. The following primary antibodies were employed in this study: HA (Cell Signaling Technology #3724 and #2367, dilution at 1:1000), phospho-ERK1/2 T202/Y204 (Cell Signaling Technology #4370, dilution at 1:1000), ERK1/2 (Cell Signaling Technology #4696, dilution at 1:1000), phospho-AKT S473 (Cell Signaling Technology #4060, dilution at 1:1000), AKT (Cell Signaling Technology #2920, dilution at 1:1000), FKBP12 (Abcam #ab24373, dilution at 1:1000), GFP (Cell Signaling Technology #2555, dilution at 1:1000), FLI (Abcam #ab15289, dilution at 1:2000), NKX2-2 (Abcam #ab187375, dilution at 1:1000), GAPDH (Cell Signaling Technology #2118, dilution at 1:3000), Vinculin (Cell Signaling Technology #13901, dilution at 1:3000), β-Actin (Cell Signaling Technology #58169, dilution at 1:3000), and α-Tubulin (Cell Signaling Technology #3873, dilution at 1:5000). […]

[2] = test system: PATU-8902 LACZ-FKBP12^F36V clone; assay: Antiproliferation, PATU-8902 LACZ-FKBP12F36V clone, 2D-monolayer (CellTiter-Glo)
How it was run: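 Viability of cells grown as 2D-adherent monolayers was determined with the CellTiter-Glo luminescent reagent (Promega). Luminescence signals were read on either an Envision 2104 plate reader (PerkinElmer) or a Fluostar Omega Reader (BMG Labtech), and the resulting data were processed and analyzed in GraphPad PRISM v8 software.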

[3] = test system: PATU-8902 FKBP12^F36V-KRAS^G12V; KRAS^-/- clone; assay: Antiproliferation, PATU-8902 FKBP12F36V-KRASG12V; KRAS-/- clone, 2D-monolayer (CellTiter-Glo)
[4] = test system: FKBP12^F36V-EWS/FLI; assay: Immunoblot of EWS502 FKBP12F36V-EWS/FLI; EWS/FLI-/- cells
Procedure: To generate 293T^WT FKBP12^F36V-KRAS^G12V and 293T^VHL−/− FKBP12^F36V-KRAS^G12V cells, concentrated lentiviral supernatants[6] were applied to 293T^WT and 293T^VHL−/− cells[33] in the presence of 4 µg mL^−1 polybrene and transduced cell lines were selected with 2 µg mL^−1 puromycin. To generate EWS502 FKBP12^F36V-GFP cells, EWS502 cells were transduced with pLEX_305-dTAG-GFP lentiviral supernatant and selected with 1 µg mL^−1 puromycin. To generate EWS502 FKBP12^F36V-EWS/FLI; EWS/FLI^−/− cells, EWS502 cells were co-transduced with pLEX_305-dTAG-EWS/FLI and lentiCRISPR v2-Blast-sgFLI_Ex9 lentiviral supernatants. Cells were then selected with both 1 µg mL^−1 puromycin (pLEX_305-dTAG-EWS/FLI) and 5 µg mL^−1 blasticidin (lentiCRISPR v2-Blast-sgFLI_Ex9). Knockout of endogenous EWS/FLI and the expression of exogenous FKBP12^F36V-EWS/FLI were confirmed by immunoblot and pooled transduced cell populations were employed for this study. PATU-8902 LACZ-FKBP12^F36V and FKBP12^F36V-KRAS^G12V; KRAS^−/− clones were also employed in this study.
PATU-8902 LACZ-FKBP12^F36V and FKBP12^F36V-KRAS^G12V; KRAS^−/− cells and 293T cells were lysed with RIPA buffer supplemented with cOmplete protease inhibitors (Roche), PhosSTOP phosphatase inhibitors (Roche), and 0.1% benzonase (Novagen). Proteins were separated using NuPAGE Bolt^TM Bis–Tris gels (Thermo Fisher Scientific) and transferred to nitrocellulose membranes, which were blocked with Odyssey Blocking Buffer (LI-COR) and incubated with primary antibodies overnight. Membranes were washed three times with TBS-T, incubated with the appropriate fluorescently labeled infrared secondary antibodies, washed again three times with TBS-T, and assessed using an Odyssey CLx Imager (LI-COR)[6],[15]. EWS502 cells were lysed with Cell Lysis Buffer (Cell Signaling Technology) supplemented with cOmplete protease inhibitors (Roche). Proteins were separated using SDS-PAGE gels and transferred to PVDF membranes, which were blocked with 5% milk in TBS-T and incubated with primary antibodies overnight. Membranes were washed five times with TBS-T, incubated with the appropriate horseradish peroxidase-conjugated secondary antibodies, washed again five times with TBS-T, and imaged. […]

[5] = test system: EWS502 FKBP12^F36V-EWS/FLI; EWS/FLI^−/− cells; assay: Relative growth of EWS502 FKBP12F36V-EWS/FLI; EWS/FLI-/- cells (CellTiter-Glo); settings: for Antiproliferation (relative growth): replicate values
Procedure: Cell viability was assayed in 2D-adherent or ultra-low adherent 3D-spheroids using CellTiter-Glo (Promega)[6],[15]. Luminescence was measured on an Envision 2104 plate reader (PerkinElmer) and Fluostar Omega Reader (BMG Labtech) and data was analyzed using GraphPad PRISM v8. Synergy assessments were performed using CellTiter-Glo (Promega) with the following modifications to the protocol described in the ref. [34]. In brief, EWS502 cells were plated at 1000 cells per well in 50 µL of appropriate media in 384-well white culture plates (Corning) allowed to adhere overnight, and 100 nL of compounds were added using a Janus Workstation pin tool (PerkinElmer) for 72 h. Cell viability was measured by addition of 10 µL of CellTiter-glo (Promega), followed by incubation for 15 minutes at room temperature. Luminescence was measured on an Envision 2104 plate reader (PerkinElmer) and data was analyzed using GraphPad PRISM v8.

CC(C)(C)c1cnc(CSc2cnc(NC(=O)C3CCN(CC(=O)NCCOCCOCCOCCNc4cccc5c4C(=O)N(C4CCC(=O)NC4=O)C5=O)CC3)s2)o1 (stereo not shown) [THAL-SNS-032] was tested, and the “Degradation of both LACZ-FKBP12F36V and CDK9 on co-treatment” value [1] was “pronounced degradation”.

With CC[C@H](C(=O)N1CCCC[C@H]1C(=O)O[C@H](CCc1ccc(OC)c(OC)c1)c1ccccc1OCC(=O)NCCOCCOCCOCC(=O)N[C@H](C(=O)N1C[C@H](O)C[C@H]1C(=O)N[C@@H](C)c1ccc(-c2scnc2C)cc1)C(C)(C)C)c1cc(OC)c(OC)c(OC)c1 [dTAG-63] the DMSO-normalized antiproliferation ([2]; log10[compound] (M) -4.69897) was 13.2737 and 12.6329 and 14.1104 and 10.912, the DMSO-normalized antiproliferation ([2]; log10[compound] (M) -5.19897) was 7.875 and 6.856 and 8.909 and 8.0101 and the DMSO-normalized antiproliferation ([2]; log10[compound] (M) -5.69897) was 78.4433 and 69.3624 and 75.8082 and 79.7492. The DMSO-normalized antiproliferation ([2]; log10[compound] (M) -6.19897) was 113.01 and 109.862 and 96.0186 and 107.676, the DMSO-normalized antiproliferation ([2]; log10[compound] (M) -6.69897) was 108.532 and 100.339 and 100.126 and 107.64 and the DMSO-normalized antiproliferation ([2]; log10[compound] (M) -7.19897) was 112.463 and 103.538 and 107.565 and 99.0951. The DMSO-normalized antiproliferation ([2]; log10[compound] (M) -7.69897) was 105.646 and 110.739 and 108.339 and 103.433, the DMSO-normalized antiproliferation ([2]; log10[compound] (M) -8.19897) was 104.397 and 99.4398 and 102.394 and 104.585 and the DMSO-normalized antiproliferation ([2]; log10[compound] (M) -8.69897) was 100.586 and 98.6181 and 103.288 and 91.8912. For the same compound, the DMSO-normalized antiproliferation ([2]; log10[compound] (M) -9.19897) was 97.4681 and 95.2333 and 95.4033 and 78.5397, the DMSO-normalized antiproliferation ([3]; log10[compound] (M) -4.69897) was 1.902 and 1.7836 and 2.592 and 1.417 and the DMSO-normalized antiproliferation ([3]; log10[compound] (M) -5.19897) was 1.019 and 0.7215 and 1.043 and 0.8704. For the same compound, the DMSO-normalized antiproliferation ([3]; log10[compound] (M) -5.69897) was 18.9261 and 16.9894 and 19.5961 and 18.1242, the DMSO-normalized antiproliferation ([3]; log10[compound] (M) -6.19897) was 26.0652 and 23.4484 and 26.4223 and 22.5834 and the DMSO-normalized antiproliferation ([3]; log10[compound] (M) -6.69897) was 29.8671 and 30.9365 and 33.7587 and 28.015. For the same compound, the DMSO-normalized antiproliferation ([3]; log10[compound] (M) -7.19897) was 63.0328 and 57.9113 and 61.3608 and 60.3114, the DMSO-normalized antiproliferation ([3]; log10[compound] (M) -7.69897) was 91.5315 and 97.3637 and 98.717 and 90.5671 and the DMSO-normalized antiproliferation ([3]; log10[compound] (M) -8.19897) was 103.715 and 106.791 and 102.663 and 104. For the same compound, the DMSO-normalized antiproliferation ([3]; log10[compound] (M) -8.69897) was 99.9165 and 93.5571 and 104.512 and 109.434, the DMSO-normalized antiproliferation ([3]; log10[compound] (M) -9.19897) was 108.333 and 105.196 and 111.04 and 104.691 and the “FKBP12F36V-EWS/FLI degradation, immunoblot” value ([4]; EWS502 FKBP12F36V-EWS/FLI, EWS/FLI-/- cells) was “marginal degradation”. For the same compound, the “NKX2-2 protein levels, immunoblot” value ([4]; relative to dTAGV-1) was “limited changes”, the “Antiproliferation (relative growth)” value ([5]; Time 0 days) was 1.033 and 1 and 1.041 and 1.01 and 1.018 and 1.028 and 1.023 and 0.847 and the “Antiproliferation (relative growth)” value ([5]; Time 3 days) was 5.323 and 5.646 and 6.274 and 5.9 and 5.4745 and 5.572 and 6.329 and 5.374. The “Antiproliferation (relative growth)” value ([5]; Time 5 days) was 8.718 and 8.673 and 8.208 and 9.16 and 8.872 and 9.224 and 8.694 and 9.906, the “Antiproliferation (relative growth)” value ([5]; Time 7 days) was 8.087 and 8.192 and 8.728 and 8.891 and 8.43 and 7.949 and 9.536 and 9.221 and the “Antiproliferative effects upon EWS/FLI degradation” value ([5]; longer time-points) was “modest antiproliferative effects”.
